# Measurements: patent publication US20120213720A1, “Prodrug composition for skin with twin protecting groups bound by disubstituted benzene” (priority 2011, published 2012)
# Key:
# melanin synthesis = settings: cited from earlier work
# skin = settings: cited from earlier work
# melanocytes in the skin = settings: cited from earlier work
# [1] = tested on: facial freckles and the normal facial skin; assay: Clinical test of whitening effect of DAP-containing cream, smart skin analysis system; assay type: in vivo
# Method: Moreover, for proving the whitening effect of the DAP-containing prescription according to the present invention, a clinical test was performed and used the detection device shown in Table 7. Six subjects joining the test received the cream preparation containing 1% or 2% DAP on facial freckles and the normal facial skin twice a day for consecutive […] (2010 Nov. 24-2010 Dec. 15), and the whitening effect was evaluated. [table] According to the foregoing clinical test, data graphs with respect to the disclosed prodrug composition as shown in FIG. 2 through FIG. 7 have been made, while the photographs showing the tested sites of several subjects are reflected in FIG. 8 through FIG.
SMILES,"anti-melanin effect, times higher than that of HQ (melanin synthesis; relative to HQ) [times]","anti-melanin effect, times higher than that of normal arbutin (melanin synthesis; relative to normal arbutin) [times]",time to desired clinical effects (skin; DA solutions with proper concentration),"effect of whitening the skin (skin; local usage, clinical research for 8 weeks)",safety concentration relative to HQ (melanocytes in the skin),"side effects (toxic to melanocytes, irritative, allergenic to the skin) ([1]; four-week clinical test, 1% or 2% DAP cream twice a day)","whitening effect on the normal skin ([1]; prescription containing 1% DAP, consecutive four weeks, left cheek)","whitening effect on the solar lentigines ([1]; prescription containing 2% DAP, consecutive four weeks, left cheek)"
"Oc1ccc(OC2CCCCO2)cc1 (centres unmarked) [DA, deoxy-arbutin]",10,350,three weeks,progressive and apparent effect of whitening the skin,four times higher,–,–,–
"c1cc(OC2CCCCO2)ccc1OC1CCCCO1 (centres unmarked) [DAP, 1,4-bis(tetrahydro-2H-pyran-2-yloxy)benzene]",–,–,–,–,–,without side effects,up to 19%,up to 46%
